Source: patent publication US12628833B2, “Composition and method for improving plant growth” (ALGAIA, priority 2019, dated 2026)

Key:
Type in all cases: cell-based
[1] = test system: bacterial species with a recognized PGPR (Plant-Growth Promoting Rhizobacteria) effect; test: Growth in liquid medium (96-well microplate), bacteria not specified
Protocol: (§1) The effect of the addition of algae extracts to a […] culture medium on the growth kinetics of seven bacterial species with a recognized PGPR (Plant-Growth Promoting Rhizobacteria) effect was determined: Bacillus megaterium, Bacillus subtilis, Rhizobium leguminosarum, Azotobacter vinelandii, Pseudomonas fluorescens, Pseudomonas fulva, Arthrobacter agilis.
(§2) Nutrient broth NB culture medium (Sigma-Aldrich) at 25 g/L was used for the multiplication of the following bacteria: Bacillus subtilis, Bacillus megaterium, Arthrobacter agilis, Pseudomonas fluorescens, Pseudomonas fulva. YMA medium (Sigma-Aldrich) without agar was used for Rhizobium leguminosarum bacteria.
(§3) Tests in sterile 96-well round-bottom microplates were performed. An absorbance of 0.06 to 0.08 (600 nm) for inoculation of the bacteria into the microplate was used in these tests.
(§4) Microplate plating included a blank, a positive control, a negative control and the samples.
(§5) The positive control was composed of bacteria and optimum culture medium (nutrient broth NB), in order to verify good multiplication of the bacteria in the microplates.
(§6) The negative control consisted of sterilized distilled water devoid of carbonaceous elements with 20 μl of bacteria inoculated with their NB culture medium, in order to determine how bacterial growth behaved in a medium depleted of any carbonaceous elements.
(§7) The blank was distilled water without bacteria in order to determine possible variations in absorbance and potential bacterial contamination.
(§8) The different algal extract tests consisted of sterile distilled water with the tested solutions at different concentrations (66 μl) to which 20 μl of bacteria were added.
(§9) The different seaweed extracts tested are: commercial mannitol, commercial laminarans, composition according to the invention (laminarans extract).
FIGS. 1 to 3 show a growth of bacterial strains in liquid medium using only the generated extract as carbon source for different bacteria.

Pseudomonas fluorescens = test: Growth in liquid medium (96-well microplate, absorbance 600 nm), tested solution as only carbon source
Protocol: as §1, §2, §3, §4, §5, §6, §7, §8, §9

Pseudomonas fulva = test: as above
Protocol: as §1, §2, §3, §4, §5, §6, §7, §8, §9

Bacillus megaterium = test: as above
Protocol: as §1, §2, §3, §4, §5, §6, §7, §8, §9

Molecule: OC[C@@H](O)[C@@H](O)[C@H](O)[C@H](O)CO [purified mannitol, mannitol]
- concentration of maximum effect on bacterial growth ([1]; sole source of carbon): 1%
- effect on bacterial growth ([1]; sole source of carbon, higher concentrations (2%)): very little or no effect
- effect on bacterial growth ([1]; sole source of carbon, lower concentrations (0.1%)): very little or no effect
- interaction between bacteria and compound (growth curve versus negative and positive control) (Pseudomonas fluorescens; concentration 0.3%): absence of interaction between bacteria and compounds
- interaction between bacteria and compound (growth curve versus negative and positive control) (Pseudomonas fluorescens; concentration 0.5%): absence of interaction between bacteria and compounds
- interaction between bacteria and compound (growth curve versus negative and positive control) (Pseudomonas fluorescens; concentration 1%): positive interaction between bacteria and compounds
- interaction between bacteria and compound (growth curve versus negative and positive control) (Pseudomonas fulva; concentration 0.3%): absence of interaction between bacteria and compounds
- interaction between bacteria and compound (growth curve versus negative and positive control) (Pseudomonas fulva; concentration 0.5%): absence of interaction between bacteria and compounds
- interaction between bacteria and compound (growth curve versus negative and positive control) (Pseudomonas fulva; concentration 1%): positive interaction between bacteria and compounds
- interaction between bacteria and compound (growth curve versus negative and positive control) (Bacillus megaterium; concentration 0.3%): absence of interaction between bacteria and compounds
- interaction between bacteria and compound (growth curve versus negative and positive control) (Bacillus megaterium; concentration 0.5%): absence of interaction between bacteria and compounds
- interaction between bacteria and compound (growth curve versus negative and positive control) (Bacillus megaterium; concentration 1%): positive interaction between bacteria and compounds

Molecule: laminaran [standard laminaran]
- concentration from which it can be used as a carbon source (increase in bacterial growth) ([1]; used alone): about 1%
- dependence of the effect on bacterial growth on concentration ([1]; used alone as carbon source): the higher the concentration, the greater the effect
- interaction between bacteria and compound (growth curve versus negative and positive control) (Pseudomonas fluorescens; concentration 0.3%): absence of interaction between bacteria and compounds
- interaction between bacteria and compound (growth curve versus negative and positive control) (Pseudomonas fluorescens; concentration 0.5%): absence of interaction between bacteria and compounds
- interaction between bacteria and compound (growth curve versus negative and positive control) (Pseudomonas fluorescens; concentration 1%): positive interaction between bacteria and compounds
- interaction between bacteria and compound (growth curve versus negative and positive control) (Pseudomonas fulva; concentration 0.3%): absence of interaction between bacteria and compounds
- interaction between bacteria and compound (growth curve versus negative and positive control) (Pseudomonas fulva; concentration 0.5%): absence of interaction between bacteria and compounds
- interaction between bacteria and compound (growth curve versus negative and positive control) (Pseudomonas fulva; concentration 1%): positive interaction between bacteria and compounds
- interaction between bacteria and compound (growth curve versus negative and positive control) (Bacillus megaterium; concentration 0.3%): absence of interaction between bacteria and compounds
- interaction between bacteria and compound (growth curve versus negative and positive control) (Bacillus megaterium; concentration 0.5%): absence of interaction between bacteria and compounds
- interaction between bacteria and compound (growth curve versus negative and positive control) (Bacillus megaterium; concentration 1%): positive interaction between bacteria and compounds

Molecule: Fucoidans
- effect on bacterial growth ([1]; concentrations in the range of <0.01%): a small improvement in growth
- effect on bacterial growth ([1]; especially when the concentration was above 0.1%): did not seem to show any real positive effect

Molecule: Alginates
- effect on bacterial growth ([1]; concentration not given): little effect
